Active and inactive are the calls of the source. The calls are words filed in the database; no cut-off is given here.
Legend:
Platelet [1] = assay: (§1) Antiaggregating activity in Homo sapiens (human) platelet rich plasma assessed as inhibition of collagen-induced platelet aggregation at 0.25 uM incubated for 4 min prior to collagen-induction measured for 5.5 min by turbidometric analysis; type: functional
Platelet [2] = assay: Antiaggregating activity in Homo sapiens (human) platelet rich plasma assessed as inhibition of collagen-induced platelet aggregation at 0.5 uM incubated for 4 min prior to collagen-induction measured for 5.5 min by turbidometric analysis; type: functional, cell-free
Platelet [3] = assay: Antiaggregating activity in Homo sapiens (human) platelet rich plasma assessed as inhibition of arachidonic acid-induced platelet aggregation at 0.25 uM incubated for 4 min prior to arachidonic acid-induction measured for 5.5 min by turbidometric analysis; type: functional, cell-free
Platelet [4] = assay: Antiaggregating activity in Homo sapiens (human) platelet rich plasma assessed as inhibition of collagen-induced platelet aggregation at 1 uM incubated for 4 min prior to collagen-induction measured for 5.5 min by turbidometric analysis; type: functional, cell-free
Platelet [5] = assay: Antiaggregating activity in Homo sapiens (human) platelet rich plasma assessed as inhibition of adrenaline-induced platelet aggregation at 0.25 uM incubated for 4 min prior to adrenaline-induction measured for 5.5 min by turbidometric analysis; type: functional, cell-free
Platelet [6] = assay: Antiaggregating activity in Homo sapiens (human) platelet rich plasma assessed as inhibition of adrenaline-induced platelet aggregation at 0.5 uM incubated for 4 min prior to adrenaline-induction measured for 5.5 min by turbidometric analysis; type: functional, cell-free
Platelet [7] = assay: Antiaggregating activity in Homo sapiens (human) platelet rich plasma assessed as inhibition of ADP-induced platelet aggregation at 0.5 uM incubated for 4 min prior to ADP-induction measured for 5.5 min by turbidometric analysis; type: functional, cell-free
Platelet [8] = assay: Antiaggregating activity in Homo sapiens (human) platelet rich plasma assessed as inhibition of ADP-induced platelet aggregation at 1 uM incubated for 4 min prior to ADP-induction measured for 5.5 min by turbidometric analysis; type: functional, cell-free
Platelet [9] = assay: Antiaggregating activity in Homo sapiens (human) platelet rich plasma assessed as inhibition of ADP-induced platelet aggregation at 0.25 uM incubated for 4 min prior to ADP-induction measured for 5.5 min by turbidometric analysis; type: functional, cell-free
Platelet [10] = assay: Antiaggregating activity in Homo sapiens (human) platelet rich plasma assessed as inhibition of adrenaline-induced platelet aggregation at 1 uM incubated for 4 min prior to adrenaline-induction measured for 5.5 min by turbidometric analysis; type: functional, cell-free
Platelet [11] = assay: Antiaggregating activity in Homo sapiens (human) platelet rich plasma assessed as inhibition of ristocetin-induced platelet aggregation at 1 uM incubated for 4 min prior to ristocetin-induction measured for 5.5 min by turbidometric analysis; type: functional, cell-free
Platelet [12] = assay: (§2) Antiaggregating activity in Homo sapiens (human) platelet rich plasma assessed as inhibition of arachidonic acid-induced platelet aggregation at 0.5 uM incubated for 4 min prior to arachidonic acid-induction measured for 5.5 min by turbidometric analysis; type: functional
[13] = Antiaggregating activity in Homo sapiens (human) platelet rich plasma assessed as ristocetin-induced platelet aggregation at 0.25 uM incubated for 4 min prior to ristocetin-induction measured for 5.5 min by turbidometric analysis (reference value: 65 to 99%); type: functional
[14] = Antiaggregating activity in Homo sapiens (human) platelet rich plasma assessed as ristocetin-induced platelet aggregation at 0.5 uM incubated for 4 min prior to ristocetin-induction measured for 5.5 min by turbidometric analysis (reference value: 65 to 99%); type: functional
Platelet [15] = assay: Antiaggregating activity in Homo sapiens (human) platelet rich plasma assessed as inhibition of arachidonic acid-induced platelet aggregation at 1 uM incubated for 4 min prior to arachidonic acid-induction measured for 5.5 min by turbidometric analysis; type: functional, cell-free
[16] = Antiaggregating activity in Homo sapiens (human) platelet rich plasma assessed as arachidonic acid-induced platelet aggregation at 0.03 uM incubated for 4 min prior to arachidonic acid-induction measured for 5.5 min by turbidometric analysis (reference value: 55 to 100%); type: functional
[17] = Antiaggregating activity in Homo sapiens (human) platelet rich plasma assessed as ristocetin-induced platelet aggregation at 1 uM incubated for 4 min prior to ristocetin-induction measured for 5.5 min by turbidometric analysis (reference value: 65 to 99%); type: functional
Platelet [18] = assay: Antiaggregating activity in Homo sapiens (human) platelet rich plasma assessed as inhibition of collagen-induced platelet aggregation at 0.06 uM incubated for 4 min prior to collagen-induction measured for 5.5 min by turbidometric analysis; type: functional, cell-free
[19] = Antiaggregating activity in Homo sapiens (human) platelet rich plasma assessed as ADP-induced platelet aggregation at 0.03 uM incubated for 4 min prior to ADP-induction measured for 5.5 min by turbidometric analysis (reference value: 54 to 88%); type: functional
Platelet [20] = assay: Antiaggregating activity in Homo sapiens (human) platelet rich plasma assessed as inhibition of arachidonic acid-induced platelet aggregation at 0.06 uM incubated for 4 min prior to arachidonic acid-induction measured for 5.5 min by turbidometric analysis; type: functional, cell-free
[21] = Antiaggregating activity in Homo sapiens (human) platelet rich plasma assessed as collagen-induced platelet aggregation at 0.03 uM incubated for 4 min prior to collagen-induction measured for 5.5 min by turbidometric analysis (reference value: 50 to 98%); type: functional
[22] = Antiaggregating activity in Homo sapiens (human) platelet rich plasma assessed as ristocetin-induced platelet aggregation at 0.125 uM incubated for 4 min prior to ristocetin-induction measured for 5.5 min by turbidometric analysis (reference value: 65 to 99%); type: functional
Platelet [23] = assay: Antiaggregating activity in Homo sapiens (human) platelet rich plasma assessed as inhibition of adrenaline-induced platelet aggregation at 0.125 uM incubated for 4 min prior to adrenaline-induction measured for 5.5 min by turbidometric analysis; type: functional, cell-free
Platelet [24] = assay: Antiaggregating activity in Homo sapiens (human) platelet rich plasma assessed as inhibition of arachidonic acid-induced platelet aggregation at 0.125 uM incubated for 4 min prior to arachidonic acid-induction measured for 5.5 min by turbidometric analysis; type: functional, cell-free
Platelet [25] = assay: Antiaggregating activity in Homo sapiens (human) platelet rich plasma assessed as inhibition of adrenaline-induced platelet aggregation at 0.03 uM incubated for 4 min prior to adrenaline-induction measured for 5.5 min by turbidometric analysis; type: functional, cell-free
[26] = Antiaggregating activity in Homo sapiens (human) platelet rich plasma assessed as ristocetin-induced platelet aggregation at 0.03 uM incubated for 4 min prior to ristocetin-induction measured for 5.5 min by turbidometric analysis (reference value: 65 to 99%); type: functional
Platelet [27] = assay: Antiaggregating activity in Homo sapiens (human) platelet rich plasma assessed as inhibition of ADP-induced platelet aggregation at 0.125 uM incubated for 4 min prior to ADP-induction measured for 5.5 min by turbidometric analysis; type: functional, cell-free
Platelet [28] = assay: Antiaggregating activity in Homo sapiens (human) platelet rich plasma assessed as inhibition of collagen-induced platelet aggregation at 0.125 uM incubated for 4 min prior to collagen-induction measured for 5.5 min by turbidometric analysis; type: functional, cell-free
Platelet [29] = assay: Antiaggregating activity in Homo sapiens (human) platelet rich plasma assessed as inhibition of adrenaline-induced platelet aggregation at 0.06 uM incubated for 4 min prior to adrenaline-induction measured for 5.5 min by turbidometric analysis; type: functional, cell-free
[30] = Antiaggregating activity in Homo sapiens (human) platelet rich plasma assessed as ristocetin-induced platelet aggregation at 0.06 uM incubated for 4 min prior to ristocetin-induction measured for 5.5 min by turbidometric analysis (reference value: 65 to 99%); type: functional
[31] = Antiaggregating activity in Homo sapiens (human) platelet rich plasma assessed as disaggregation of ADP-induced platelet aggregation at 0.06 uM incubated for 4 min prior to ADP-induction measured for 5.5 min by turbidometric analysis relative to control; type: functional
[32] = as §1; type: functional; set-up: scale not given: the % may be the effect or the level left
Platelet [33] = assay: Antiaggregating activity in Homo sapiens (human) platelet rich plasma assessed as inhibition of ADP-induced platelet aggregation at 2 uM incubated for 4 min prior to ADP-induction measured for 5.5 min by turbidometric analysis; type: functional, cell-free
Platelet [34] = assay: Antiaggregating activity in Homo sapiens (human) platelet rich plasma assessed as inhibition of ristocetin-induced platelet aggregation at 2 uM incubated for 4 min prior to ristocetin-induction measured for 5.5 min by turbidometric analysis; type: functional, cell-free
Platelet [35] = assay: Antiaggregating activity in Homo sapiens (human) platelet rich plasma assessed as inhibition of arachidonic acid-induced platelet aggregation at 2 uM incubated for 4 min prior to arachidonic acid-induction measured for 5.5 min by turbidometric analysis; type: functional, cell-free
[36] = Antiaggregating activity in Homo sapiens (human) platelet rich plasma assessed as ADP-induced platelet aggregation at 0.25 uM incubated for 4 min prior to ADP-induction measured for 5.5 min by turbidometric analysis (reference value: 54 to 88%); type: functional
[37] = Antiaggregating activity in Homo sapiens (human) platelet rich plasma assessed as disaggregation of ADP-induced platelet aggregation at 1 uM incubated for 4 min prior to ADP-induction measured for 5.5 min by turbidometric analysis relative to control; type: functional
Platelet [38] = assay: Antiaggregating activity in Homo sapiens (human) platelet rich plasma assessed as inhibition of collagen-induced platelet aggregation at 2 uM incubated for 4 min prior to collagen-induction measured for 5.5 min by turbidometric analysis; type: functional, cell-free
[39] = as §2; type: functional; set-up: scale not given: the % may be the effect or the level left
[40] = Antiaggregating activity in Homo sapiens (human) platelet rich plasma assessed as adrenaline-induced platelet aggregation at 0.25 uM incubated for 4 min prior to adrenaline-induction measured for 5.5 min by turbidometric analysis (reference value: 65 to 100%); type: functional
Platelet [41] = assay: Antiaggregating activity in Homo sapiens (human) platelet rich plasma assessed as inhibition of adrenaline-induced platelet aggregation at 2 uM incubated for 4 min prior to adrenaline-induction measured for 5.5 min by turbidometric analysis; type: functional, cell-free
Platelet [42] = assay: Antiaggregating activity in Homo sapiens (human) platelet rich plasma assessed as inhibition of collagen-induced platelet aggregation at 0.03 uM incubated for 4 min prior to collagen-induction measured for 5.5 min by turbidometric analysis; type: functional, cell-free
[43] = Antiaggregating activity in Homo sapiens (human) platelet rich plasma assessed as ristocetin-induced platelet aggregation at 0.1 uM incubated for 4 min prior to ristocetin-induction measured for 5.5 min by turbidometric analysis (reference value: 65 to 99%); type: functional
[44] = Antiaggregating activity in Homo sapiens (human) platelet rich plasma assessed as arachidonic acid-induced platelet aggregation at 0.1 uM incubated for 4 min prior to arachidonic acid-induction measured for 5.5 min by turbidometric analysis (reference value: 55 to 100%); type: functional
[45] = Antiaggregating activity in Homo sapiens (human) platelet rich plasma assessed as disaggregation of ristocetin-induced platelet aggregation at 0.25 uM incubated for 4 min prior to ristocetin-induction measured for 5.5 min by turbidometric analysis relative to control; type: functional
Platelet [46] = assay: Antiaggregating activity in Homo sapiens (human) platelet rich plasma assessed as inhibition of adrenaline-induced platelet aggregation at 0.1 uM incubated for 4 min prior to adrenaline-induction measured for 5.5 min by turbidometric analysis; type: functional, cell-free
Platelet [47] = assay: Antiaggregating activity in Homo sapiens (human) platelet rich plasma assessed as inhibition of collagen-induced platelet aggregation at 0.1 uM incubated for 4 min prior to collagen-induction measured for 5.5 min by turbidometric analysis; type: functional, cell-free
[48] = Antiaggregating activity in Homo sapiens (human) platelet rich plasma assessed as disaggregation of ADP-induced platelet aggregation at 0.25 uM incubated for 4 min prior to ADP-induction measured for 5.5 min by turbidometric analysis relative to control; type: functional
[49] = Antiaggregating activity in Homo sapiens (human) platelet rich plasma assessed as ADP-induced platelet aggregation at 0.1 uM incubated for 4 min prior to ADP-induction measured for 5.5 min by turbidometric analysis (reference value: 54 to 88%); type: functional

Row | Structure (SMILES) | inhibition (Platelet [1]) | inhibition (Platelet [2]) | inhibition (Platelet [3]) | inhibition (Platelet [4]) | inhibition (Platelet [5]) | inhibition (Platelet [6]) | inhibition (Platelet [7]) | inhibition (Platelet [8]) | inhibition (Platelet [10]) | inhibition (Platelet [12]) | Activity [13] [%] | Activity [14] [%] | inhibition (Platelet [15]) | Activity [16] [%] | Activity [17] [%] | inhibition (Platelet [18]) | Activity [19] [%] | inhibition (Platelet [20]) | Activity [22] [%] | inhibition (Platelet [23]) | also measured
1 | COc1cc(C(=O)[n+]2cccc(C(=O)N3CCN(c4ccccc4Cl)CC3)c2)cc(OC)c1OC.[Cl-] | Active | Active | Active | Active | Active | Active | Active | Active | Active | Active | 79 | 20 | Active |  |  |  |  |  |  |  | inhibition (Platelet [9]): Active; inhibition (Platelet [11]): Active
2 | Br.O=C(C1CCCN(Cc2ccc(CN3CCCC(C(=O)N4CCN(c5ccccc5Cl)CC4)C3)cc2)C1)N1CCN(c2ccccc2Cl)CC1 (stereo not given) |  | Active |  | Active |  | Active | Active | Active | Active | Active |  | 35 | Active | 58 | 30 | Active | 84 | Active | 31 | Active | Activity [21]: 76%; inhibition (Platelet [24]): Active; inhibition (Platelet [25]): Active; Activity [26]: 78%; inhibition (Platelet [27]): Active; inhibition (Platelet [28]): Active; inhibition (Platelet [29]): Active; Activity [30]: 61%; Activity [31]: 27%
3 | O=C(c1ccc[n+](Cc2ccccc2)c1)N1CCN(C(=O)c2ccc[n+](Cc3ccccc3)c2)CC1.[Cl-].[Cl-] |  |  |  | Active |  |  |  |  | Active |  | 80 |  | Active |  | 73 |  |  |  |  |  | Activity [32]: 79%; inhibition (Platelet [33]): Active; inhibition (Platelet [34]): Active; inhibition (Platelet [35]): Active; Activity [36]: 28%; Activity [37]: 25%; inhibition (Platelet [38]): Active; Activity [39]: 71%; Activity [40]: 66%; inhibition (Platelet [41]): Active
4 | Br.O=C(C1CCCN(Cc2ccc(Br)cc2)C1)N1CCN(c2ccccc2Cl)CC1 (stereo not given) |  |  |  | Active |  |  |  | Active | Active |  |  |  | Active | 56 | 39 | Active | 55 | Active | 53 | Active | inhibition (Platelet [24]): Active; inhibition (Platelet [25]): Active; Activity [26]: 67%; inhibition (Platelet [27]): Active; inhibition (Platelet [28]): Active; inhibition (Platelet [29]): Active; Activity [30]: 62%; inhibition (Platelet [42]): Active; Activity [31]: 20%
5 | Cl.O=C(C1CCCN(Cc2ccccc2F)C1)N1CCN(c2ccccc2Cl)CC1 (stereo not given) | Active | Active | Active | Active | Active | Active | Active | Active | Active | Active |  | 73 | Active |  | 50 |  |  |  |  |  | Activity [43]: 50%; Activity [44]: 59%; Activity [45]: 18%; inhibition (Platelet [46]): Active; inhibition (Platelet [47]): Active; Activity [48]: 38%; Activity [49]: 74%
